For one compound, melting point results are on record in patent US6958341B2, “Pyrazolopyrimidines as CRF antagonists” (Bristol-Myers Squibb Pharma Company, priority 1999, dated 2005).

By melting point is commonly meant the temperature, or range, at which the solid turns liquid.

Compound `CCC(CC)c1c(O)nn2c(-c3ccc(Cl)cc3Cl)c(C)cnc12` [Example 92, 7-(2,4-dichlorophenyl)-2-hydroxy-6-methyl-3-(3-pentyl)pyrazolo[1,5-a]pyrimidine] had a melting point of 227 to 228 °C.
